Here are results for twelve molecules from patent US7015306B2 (BioSynthema, Inc., priority 1999, dated 2006).

A short description of series [1]: In vitro urine stability assay (HPLC) of In-111 labeled peptide. The series is classed as in vitro ADME. As to conditions: for remaining at 4 h: rat, t = 4 h. The protocol:
(§1) All reagents were purchased from Sigma unless otherwise noted. The peptide and ^111InCl3 in 0.05 N HCl were incubated in a sodium acetate/ascorbic acid buffer for 30 minutes at room temperature. The reaction was diluted with 5% ethanol/95% PBS before using in subsequent in vitro assays.
(§2) Human serum was purchased from Sigma (H 1388). The labeled peptide was incubated in either human serum or rat urine at 37EC for the specified amount of time. An aliquot was filtered through a 0.45 μm syringe filter prior to HPLC injection.

A short description of series [2]: In vitro serum stability assay (HPLC) of In-111 labeled peptide. To be noted: for remaining at 4 h: t = 4 h. The series is classed as in vitro ADME, human. The protocol: as §1, §2
Setting [3] is: 37EC, read-out: HPLC Evaluation of Urine Stability at 37EC, Urine, t = 4 h.
[4] abbreviates: human serum, 37EC, read-out: HPLC Evaluation of Serum Stability at 37EC, Serum, t = 4 h.

*1 amine or outer side, *2 acyl side, *3 side chain or, on linkers, in order; H or OH if unused. Where a SMILES comes first, the peptide text is derived from it. [ ]: non-standard residue; d: D form. The star is where a group is joined. ξ: configuration not given here. Ala(piperidin-4-yl) = O=C([C@H](CC1CCN([*:3])CC1)N[*:1])[*:2]; Gly(1-amidinopiperidin-4-yl) = N=C(N)N1CCC([C@H](N)C(=O)O)CC1; Ala(1-amidino-4-piperidyl) = N=C(N)N1CCC(C[C@H](N)C(=O)O)CC1; DTPA = O=C(O)CN(CCN(CC(=O)O)CC(=O)O)CCN(CC(=O)O)CC(=O)*; Phe(4-guanidino) = N=C(N)Nc1ccc(C[C@H](N)C(=O)O)cc1; ξGly(4-Pip(1-amidino)) = N=C(N)N1CCC(C(N)C(=O)O)CC1; X2 = NC[C@H]1CC[C@H](C[C@H](N[*:1])C(=O)[*:2])CC1; X1 = CC(C)C[C@@H](CN[C@@H](CC(C)C)C(N)=O)N*; Chg = N[C@H](C(=O)O)C1CCCCC1; Tle = CC(C)(C)[C@H](N)C(=O)O

Consider `CC[C@H](C)[C@H](NC(=O)[C@H](Cc1ccc(O)cc1)NC(=O)[C@@H]1CCCN1C(=O)[C@H](CCCNC(=N)N)NC(=O)C(CCc1ccnc(N)n1)NC(=O)[C@@H]1CCCN1C(=O)[C@@H](CCCCN)NC(=O)CN(CCN(CCN(CC(=O)O)CC(=O)O)CC(=O)O)CC(=O)O)C(=O)N[C@@H](CC(C)C)C(=O)O` (single isomer, unassigned) [In-111-DTPA-DK-P-Aba(Apy)-R-P-Y-J-L, metal not drawn], for which the “HPLC Evaluation of Urine Stability at 37EC, Urine, t = 0” value (shortened to “HPLC Evaluation of Urine Stability”) in series [1] (rat urine) is 95.6%. The remaining at 4 h in series [1] (setting [3]) stood at 6%; in series [2] (setting [4]) it was 4.3%. In series [2] (human serum), the “HPLC Evaluation of Serum Stability at 37EC, Serum, t = 0” value (“HPLC Evaluation of Serum Stability” below) worked out at 96.9%.

For the molecule `CC[C@H](C)[C@H](NC(=O)[C@H](Cc1ccc(O)cc1)NC(=O)[C@@H]1CCCN1C(=O)[C@H](CCCNC(=N)N)NC(=O)C(NC(=O)[C@@H]1CCCN1C(=O)[C@@H](CCCCN)NC(=O)CN(CCN(CCN(CC(=O)O)CC(=O)O)CC(=O)O)CC(=O)O)C1CCN(C(=N)N)CC1)C(=O)N[C@@H](CC(C)C)C(=O)O` (single isomer, unassigned) [In-111-DTPA-DK-P-G(PipAm)-R-P-Y-I-L, metal not drawn], the results for the remaining at 4 h in series [1] (setting [3]) and in series [2] (setting [4]) were 16.6% and 19.5%, respectively.

For `CC(C)C[C@H](NC(=O)[C@@H](NC(=O)[C@H](Cc1ccc(O)cc1)NC(=O)[C@@H]1CCCN1C(=O)[C@H](CCCNC(=N)N)NC(=O)C(NC(=O)[C@@H]1CCCN1C(=O)[C@@H](CCCCN)NC(=O)CN(CCN(CCN(CC(=O)O)CC(=O)O)CC(=O)O)CC(=O)O)C1CCN(C(=N)N)CC1)C(C)(C)C)C(=O)O` (single isomer, unassigned) [In-111-DTPA-DK-P-G(PipAm)-R-P-Y-tBuG-L, metal not drawn], the remaining at 4 h in series [1] (Table 4, rat urine, read-out: Urine Stability, Urine (t = 4 h)) turned out to be 63%; in series [2] (Table 4, human serum, read-out: Serum Stability, Serum (t = 4 h)), 87.5%.

On to `CC[C@H](C)[C@H](NC(=O)[C@H](Cc1ccc(O)cc1)NC(=O)[C@@H]1CCCN1C(=O)C(CCc1ccnc(N)n1)NC(=O)[C@H](CCCNC(=N)N)NC(=O)[C@@H]1CCCN1C(=O)[C@@H](CCCCN)NC(=O)CN(CCN(CCN(CC(=O)O)CC(=O)O)CC(=O)O)CC(=O)O)C(=O)N[C@@H](CC(C)C)C(=O)O` (single isomer, unassigned) [In-111-DTPA-DK-P-R-Aba(Apy)-P-Y-I-L, metal not drawn], for which the “HPLC Evaluation of Urine Stability” value in series [1] (rat urine) was 96.7%. The remaining at 4 h in series [1] (setting [3]) came out at 4.7%; in series [2] (setting [4]), 15.7%. In addition, the “HPLC Evaluation of Serum Stability” value in series [2] (human serum) worked out at 98.1%.

Take `CC[C@H](C)[C@H](NC(=O)[C@H](Cc1ccc(O)cc1)NC(=O)[C@@H]1CCCN1C(=O)C(Cc1ccc(NC(=N)N)cc1)NC(=O)[C@H](CCCNC(=N)N)NC(=O)[C@@H]1CCCN1C(=O)[C@@H](CCCCN)NC(=O)CN(CCN(CCN(CC(=O)O)CC(=O)O)CC(=O)O)CC(=O)O)C(=O)N[C@@H](CC(C)C)C(=O)O` (single isomer, unassigned) [In-111-DTPA-DK-P-R-F(Gu)-P-Y-I-L, metal not drawn]: in series [1] (rat urine), the “HPLC Evaluation of Urine Stability” value was found to be 90.4%. Also, the figures for the remaining at 4 h in series [1] (setting [3]) and in series [2] (setting [4]) were 0% and 16.3%, respectively. Besides, the “HPLC Evaluation of Serum Stability” value in series [2] (human serum) is 94%.

On to `CC(C)C[C@H](NC(=O)[C@@H](NC(=O)[C@H](Cc1ccc(O)cc1)NC(=O)[C@@H]1CCCN1C(=O)[C@H](CCCNC(=N)N)NC(=O)[C@@H](NC(=O)[C@@H]1CCCN1C(=O)[C@H](C[C@H]1CC[C@H](CN)CC1)NC(=O)CN(CCN(CCN(CC(=O)O)CC(=O)O)CC(=O)O)CC(=O)O)C1CCN(C(=N)N)CC1)C(C)(C)C)C(=O)O` [Compound XII, DTPA-trans-Cha(4-CH2NH2)-Pro-Gly(PipAm)-Arg-Pro-Tyr-tBuGly-Leu-OH] ({DTPA}-[X2]P[Gly(1-amidinopiperidin-4-yl)]RPY[Tle]L-OH), for which the “% of peptide at 4 hours after incubation at 37EC, Urine” value (from here on “% of peptide at 4 hours … Urine”) in series [1] (rat urine, 37EC, 4 hours) amounted to 89.4%. For the same molecule, the “% of peptide at 4 hours after incubation at 37EC, Serum” value (“% of peptide at 4 hours … Serum” below) in series [2] (human serum, 37EC, 4 hours) came out at 94.8%.

For the molecule `CC(C)C[C@H](NC(=O)[C@@H](NC(=O)[C@H](Cc1ccc(O)cc1)NC(=O)[C@@H]1CCCN1C(=O)[C@H](CCCNC(=N)N)NC(=O)[C@@H](NC(=O)[C@@H]1CCCN1C(=O)[C@H](CC1CCNCC1)NC(=O)CN(CCN(CCN(CC(=O)O)CC(=O)O)CC(=O)O)CC(=O)O)C1CCN(C(=N)N)CC1)C(C)(C)C)C(=O)O` [DTPA-(Pip)Ala-Pro-Gly(PipAm)-Arg-Pro-Tyr-tBuGly-Leu-OH] ({DTPA}-[Ala(piperidin-4-yl)]P[Gly(1-amidinopiperidin-4-yl)]RPY[Tle]L-OH), in series [1] (rat urine, 37EC, 4 hours), the “% of peptide at 4 hours … Urine” value is recorded as 98.3%. For the same molecule, the “% of peptide at 4 hours … Serum” value in series [2] (human serum, 37EC, 4 hours) came out at 98.9%.

On to `CC[C@H](C)[C@H](NC(=O)[C@H](Cc1ccc(O)cc1)NC(=O)[C@@H]1CCCN1C(=O)[C@H](CCCNC(=N)N)NC(=O)[C@H](CCCNC(=N)N)NC(=O)CN(CCN(CCN(CC(=O)O)CC(=O)O)CC(=O)O)CC(=O)O)C(=O)N[C@@H](CC(C)C)C(=O)O` [DTPA-Arg-Arg-Pro-Tyr-Ile-Leu-OH, reference compound], for which, in series [1] (rat urine, 37EC, 4 hours), the “% of compound present at 4 hours in urine” value is listed as 13.0% and the “% of peptide at 4 hours … Urine” value was 13.0%. For the same molecule, in series [2] (human serum, 37EC, 4 hours), the “% of compound present at 4 hours in serum” value worked out at 1.6% and the “% of peptide at 4 hours … Serum” value amounted to 1.6%.

On to `CC(C)C[C@@H](CN[C@@H](CC(C)C)C(N)=O)NC(=O)[C@H](Cc1ccc(O)cc1)NC(=O)[C@@H]1CCCN1C(=O)[C@H](CCCNC(=N)N)NC(=O)[C@H](Cc1ccc(NC(=N)N)cc1)NC(=O)[C@@H]1CCCN1C(=O)[C@@H](CCCCN)NC(=O)CN(CCN(CCN(CC(=O)O)CC(=O)O)CC(=O)O)CC(=O)O` [DTPA-DLys-Pro-(4-Gu)Phe-Arg-Pro-Tyr-Leu-(Ψ-CH2-NH)-Leu-OH] ({DTPA}-[dK]P[Phe(4-guanidino)]RPY-X1; C-terminus assumed), for which, in series [1] (rat urine, 37EC, 4 hours), the “% of peptide at 4 hours … Urine” value is given as 95.7%. For the same molecule, the “% of peptide at 4 hours … Serum” value in series [2] (human serum, 37EC, 4 hours) was 76.2%.

Consider `CC(C)C[C@H](NC(=O)[C@@H](NC(=O)[C@H](Cc1ccc(O)cc1)NC(=O)[C@@H]1CCCN1C(=O)[C@H](CCCNC(=N)N)NC(=O)[C@H](CC1CCN(C(=N)N)CC1)NC(=O)[C@@H]1CCCN1C(=O)[C@@H](CCCCN)NC(=O)CN(CCN(CCN(CC(=O)O)CC(=O)O)CC(=O)O)CC(=O)O)C(C)(C)C)C(=O)O` [DTPA-DLys-Pro-Ala(PipAm)-Arg-Pro-Tyr-tBuGly-Leu-OH] ({DTPA}-[dK]P[Ala(1-amidino-4-piperidyl)]RPY[Tle]L-OH), for which the “% of peptide at 4 hours … Urine” value in series [1] (rat urine, 37EC, 4 hours) turned out to be 89.8%. Besides, the “% of peptide at 4 hours … Serum” value in series [2] (human serum, 37EC, 4 hours) is 96.5%.

As for `CC(C)C[C@H](NC(=O)[C@@H](NC(=O)[C@@H](Cc1ccc(O)cc1)NC(=O)[C@@H]1CCCN1C(=O)[C@H](CCCNC(=N)N)NC(=O)C(NC(=O)[C@@H]1CCCN1C(=O)[C@@H](CCCCN)NC(=O)CN(CCN(CCN(CC(=O)O)CC(=O)O)CC(=O)O)CC(=O)O)C1CCN(C(=N)N)CC1)C(C)(C)C)C(=O)O` (stereo partly drawn) [DTPA-DLys-Pro-Gly(PipAm)-Arg-Pro-DTyr-tBuGly-Leu-OH], in series [1] (rat urine, 37EC, 4 hours), the “% of peptide at 4 hours … Urine” value is 98.3%. The “% of peptide at 4 hours … Serum” value in series [2] (human serum, 37EC, 4 hours) is recorded as 98.9%.

`CC(C)C[C@H](NC(=O)[C@@H](NC(=O)[C@H](Cc1ccc(O)cc1)NC(=O)[C@@H]1CCCN1C(=O)[C@H](CCCNC(=N)N)NC(=O)C(NC(=O)[C@@H]1CCCN1C(=O)[C@@H](CCCCN)NC(=O)CN(CCN(CCN(CC(=O)O)CC(=O)O)CC(=O)O)CC(=O)O)C1CCN(C(=N)N)CC1)C1CCCCC1)C(=O)O` (stereo partly drawn) [DTPA-DLys-Pro-Gly(PipAm)-Arg-Pro-Tyr-Chg-Leu-OH] ({DTPA}-[dK]P[ξGly(4-Pip(1-amidino))]RPY[Chg]L-OH): the “% of peptide at 4 hours … Urine” value in series [1] (rat urine, 37EC, 4 hours) was determined as 7.0%. Also, the “% of peptide at 4 hours … Serum” value in series [2] (human serum, 37EC, 4 hours) was 75.2%.
